Earlier results as cited in US20060177392A1, “Oil-based composition for acne” (priority 2005, published 2006).

What was measured:
[1] = typical dose 0.5 to 2 mg/kg body weight per 24 hours; human fetal abnormalities and spontaneous abortions
[2] = taken internally

Molecule | Teratogenicity [1] | Single megadose that can induce brain swelling, headache, drowsiness, vomiting, and/or death ([2]; single megadose) | Sustained dose that may be toxic ([2]; sustained doses)
CC1=C(/C=C/C(C)=C/C=C/C(C)=C\C(=O)O)C(C)(C)CCC1 [Accutane, 13-cis-retinoic acid] | often teratogenic | – | –
Vitamin A | – | 1,500,000 IU | over 50,000 IU
